How the values were obtained:
NAMPT [1] = target: T1, NAMPT (Homo sapiens, UniProt P43490); experiment: Time-Resolved Fluorescence Resonance Energy Transfer (TR-FRET) Binding Assay of NAMPT; details: 6.8 nM NAMPT, 200 nM probe, equilibrated 3 hours, no substrates
Outline: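 Compound was mixed with enzyme, probe and antibody and equilibrated 3 h at room temperature. TR-FRET read at Ex 337 nm, Em 520/495 nm. Ratios were normalized to controls and fitted to a four-parameter logistic equation for IC50.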

NAMPT [2] = target: T1, NAMPT; experiment: TR-FRET Binding Assay of NAMPT with PRPP; details: 2 nM NAMPT, 2 nM probe, 200 µM PRPP and 2.5 mM ATP, equilibrated 16 hours
Outline: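 TR-FRET probe displacement with 2 nM NAMPT, 2 nM probe and 1 nM Tb-anti-His antibody in the presence of 200 µM PRPP and 2.5 mM ATP, 2% DMSO (all final). Equilibrated 16 hours before reading to permit possible enzymatic modification of compounds.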

PC3 cells = experiment: NAMPT Cell Proliferation Assay (Cell Titer Glo); type: cell-based; details: Homo sapiens, PC-3, 120 h, incubated 5 days, cell viability
Outline: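 PC3 cells (500/well, RPMI with 10% heat-inactivated FBS) were exposed to 10-fold compound dilutions from […] for 5 days at 37 °C, 5% CO2. Viability was read with Cell Titer Glo; IC50 from sigmoidal fit of percent inhibition.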

T1 sequence (P43490 whole entry): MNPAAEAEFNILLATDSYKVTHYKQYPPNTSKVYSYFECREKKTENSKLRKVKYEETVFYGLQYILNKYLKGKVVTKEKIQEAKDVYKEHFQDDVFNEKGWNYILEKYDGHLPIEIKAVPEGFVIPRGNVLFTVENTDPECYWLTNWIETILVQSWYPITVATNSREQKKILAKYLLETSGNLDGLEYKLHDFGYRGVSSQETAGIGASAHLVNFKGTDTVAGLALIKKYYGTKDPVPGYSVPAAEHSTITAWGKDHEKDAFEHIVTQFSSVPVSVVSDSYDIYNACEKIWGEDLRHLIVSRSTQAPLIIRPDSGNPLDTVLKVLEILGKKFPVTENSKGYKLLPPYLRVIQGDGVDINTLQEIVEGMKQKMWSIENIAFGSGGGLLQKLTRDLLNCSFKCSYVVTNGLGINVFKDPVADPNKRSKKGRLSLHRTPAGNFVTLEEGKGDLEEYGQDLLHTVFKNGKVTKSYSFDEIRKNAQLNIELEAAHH

`CC(C)CC(=O)N1CC[C@@H](Oc2ccc(NC(=O)N3CC(c4cccnc4)C3)cc2)C1` [Example 333, N-(4-{[(3R)-1-(3-methylbutanoyl)pyrrolidin-3-yl]oxy}phenyl)-3-(pyridin-3-yl)azetidine-1-carboxamide] gave an IC50 (NAMPT [1]) of 56.1 nM, an IC50 (NAMPT [2]) of 0.416 nM and an IC50 (PC3 cells) of 22.4 nM.
With `O=C(Nc1ccc(O[C@@H]2CCN(C(=O)C3CCCC3)C2)cc1)N1CC(c2cccnc2)C1` [Example 334, N-(4-{[(3R)-1-(cyclopentylcarbonyl)pyrrolidin-3-yl]oxy}phenyl)-3-(pyridin-3-yl)azetidine-1-carboxamide] the IC50 (NAMPT [1]) was 94.9 nM, the IC50 (NAMPT [2]) was 0.449 nM and the IC50 (PC3 cells) was 32.4 nM.
In the case of `CC(C)C(C)C(=O)N1CC[C@@H](Oc2ccc(NC(=O)N3CC(c4cccnc4)C3)cc2)C1` (stereo partly drawn) [Example 335, N-(4-{[(3R)-1-(2,3-dimethylbutanoyl)pyrrolidin-3-yl]oxy}phenyl)-3-(pyridin-3-yl)azetidine-1-carboxamide], the IC50 (NAMPT [1]) is reported as 45.7 nM, the IC50 (NAMPT [2]) is reported as 0.495 nM and the IC50 (PC3 cells) is reported as 15.8 nM.
